The values that follow come from paper PMC7688903 (Frontiers in Microbiology, 2020).

In one series the test system is E. coli ATCC 25922. It counts as cell-based, Escherichia coli. To be noted: ATCC 25922, 20 h. In short, it runs like this: (§1)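 Inocula were set to 0.5 McFarland and diluted to ~5 × 10^5 CFU/mL (bacteria, MH broth) or 0.5 × 10^3 to 2.5 × 10^3 CFU/mL (yeast, RPMI 1640). Peptide twofold dilutions were added, plates incubated 20 h at 37°C or 48 h at 35°C, then scored by eye.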

The test system of another series is P. aeruginosa ATCC 27853. It counts as cell-based, Pseudomonas aeruginosa. To be noted: ATCC 27853, 20 h. In short, it runs like this: as §1
Series [1] has as its system carbapenem-resistant P. aeruginosa (CRPA) SIPI-012. The class given is cell-based, Pseudomonas aeruginosa. Particulars: carbapenem-resistant (CRPA) SIPI-012, 20 h. Put shortly:
as §1

The next series relates to A. baumannii ATCC 19606. It counts as cell-based, Acinetobacter baumannii. To be noted: ATCC 19606, 20 h. Put shortly:
as §1

Series [2] has as its system carbapenem-resistant A. baumannii (CRAB) SIPI-025. The class given is cell-based, Acinetobacter baumannii. To be noted: carbapenem-resistant (CRAB) SIPI-025, 20 h. In short, it runs like this: as §1
The test system of another series is S. aureus ATCC 25923. The experiment in a line: microbe, parasite or virus in culture. The class given is cell-based, Staphylococcus aureus. To be noted: ATCC 25923, 20 h. In short, it runs like this:
as §1

Another series has as its system C. albicans ATCC 10231. Put plainly: microbe, parasite or virus in culture. Particulars: ATCC 10231, 48 h. It counts as cell-based, Candida albicans. Put shortly: as §1
The subject of series [3] is proteases secreted by S. aureus ATCC 25923. Put plainly: in vitro. Put shortly: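 Cell-free culture supernatants (overnight, 37°C; MH broth for bacteria, 2% tryptone/2% dextrose for yeast) were centrifuged, adjusted to pH 8.0 and 0.22 μm filtered. Peptides at 0.5 mg/mL were incubated in supernatant 24 h at 37°C; remaining intact peptide measured by RP-HPLC, with peptide-free supernatant as negative control.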

Another series relates to RAW 264.7 cells. Put plainly: Cell viability assay (MTT). It counts as cell-based, mouse. Particulars: 1–128 μM peptide in DMEM with 4% FBS, 42 h, 595 nm, triplicate. Put shortly: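 RAW 264.7 cells (1 × 10^4/well, DMEM + 10% FBS) grown overnight to 80% confluency, then exposed to peptides at 1–128 μM in DMEM with 4% FBS for 42 h at 37 °C. MTT read at 595 nm; viability relative to medium-only controls, triplicate, IC50 as 50% loss of viability.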

The subject of a further series is BALB/c mice. The experiment in a line: In vivo acute toxicity, single injection. To be noted: monitored 24 h. Also noted: species or system mouse. The protocol:
Six-week-old mice (approximate weight: 18–20 g, SFP grade) were bred and maintained under specific pathogen-free conditions on a 12 h light/dark cycle. The peptides were dissolved in PBS (pH 7.4) and three mice were used for each dose. As a control, colistin was administered in a similar manner. The mice were monitored for 24 h and mice were weighed at the end of the experiment. The procedure was evaluated and approved by the Ethical Committee of Experimental Animals of the Chia Tai Tianqing Pharmaceutical Group in August 2019.
As summarized in Figure 6, a toxicity score was assigned as follows: no abnormalities = without signs; mild depression, poor motility, purple-black tail, and recovery in 1 h = mild signs; serious depression and poor motility even under stimulation = manifest signs; sudden death within 10 min = died of toxic effects.

Values after ≈ are worked out from the molar mass of the structure shown. Where a SMILES comes first, the peptide text is derived from it. [ ]: non-standard residue; d: D form. 2Thi = N[C@@H](Cc1cccs1)C(=O)O; Aib = CC(C)(N)C(=O)O

Consider `CC(C)C[C@H](NC(=O)[C@H](CC(C)C)NC(=O)[C@@H](CCCCN)NC(=O)[C@@H](CCCCN)NC(=O)[C@H](Cc1ccccc1)NC(=O)[C@H](CC(C)C)NC(=O)[C@@H](CCCNC(=N)N)NC(=O)[C@H](N)CCCCN)C(=O)N[C@H](CCCCN)C(=O)N[C@@H](Cc1ccc(O)cc1)C(=O)N[C@@H](CC(C)C)C(=O)N[C@H](CCCNC(=N)N)C(=O)N[C@H](CCCCN)C(=O)N[C@@H](Cc1ccccc1)C(N)=O` [DP06] (H-[dK][dR]LF[dK][dK]LL[dK]YL[dR][dK]F-NH2), for which the MIC with E. coli ATCC 25922 amounted to 1 µg/mL (≈ 0.532 µM); in the series on P. aeruginosa ATCC 27853, 1 µg/mL (≈ 0.532 µM); in series [1], 8 µg/mL (≈ 4.25 µM); in the series with A. baumannii ATCC 19606, 1 µg/mL (≈ 0.532 µM); in series [2], 2 µg/mL (≈ 1.06 µM); in the series on S. aureus ATCC 25923, 0.5 µg/mL (≈ 0.266 µM). Besides, in the series with C. albicans ATCC 10231, the MIC is 2 µg/mL (≈ 1.06 µM). Also, the fraction remaining (usually the share of the starting amount still present when the sample was taken) at 24 h, 0.5 mg/mL in [3] (Staphylococcus aureus, S. aureus ATCC 25923 culture supernatant, pH 8) is 86.4 ± 4.81%. It took 48.8 ± 6.97 µM to reach half-maximal inhibition in the series on RAW 264.7 cells (IC50). Besides, the “signs of toxicity after intravenous injection” value with BALB/c mice (single i.v. dose 5 mg/kg, three mice) was “sudden death within 1 min of injection”; in the series on BALB/c mice (single i.v. dose 10 mg/kg, three mice), “sudden death within 1 min of injection”.

On to `CC(C)C[C@H](NC(=O)[C@H](Cc1ccc(O)cc1)NC(=O)[C@H](CCCCN)NC(=O)[C@H](CC(C)C)NC(=O)[C@H](CC(C)C)NC(=O)[C@H](CCCCN)NC(=O)[C@H](CCCCN)NC(=O)[C@H](Cc1ccccc1)NC(=O)[C@H](CC(C)C)NC(=O)[C@H](CCCNC(=N)N)NC(=O)C(C)(C)N)C(=O)N[C@@H](CCCNC(=N)N)C(=O)N[C@@H](CCCCN)C(=O)N[C@@H](Cc1cccs1)C(N)=O` [UP09] (H-[Aib]RLFKKLLKYLRK[2Thi]-NH2; N-terminus assumed), for which the MIC against E. coli ATCC 25922 was 2 µg/mL (≈ 1.08 µM); in the series with P. aeruginosa ATCC 27853 it was 2 µg/mL (≈ 1.08 µM); in [1] it was 4 µg/mL (≈ 2.17 µM); in the series with A. baumannii ATCC 19606, 2 µg/mL (≈ 1.08 µM); in series [2], 2 µg/mL (≈ 1.08 µM); against S. aureus ATCC 25923, 1 µg/mL (≈ 0.542 µM). In addition, the MIC in the series on C. albicans ATCC 10231 was determined as 4 µg/mL (≈ 2.17 µM). Besides, the “Percent of remained peptide amount after incubation (%)” value in series [3] (S. aureus ATCC 25923 culture supernatant (MH broth), pH 8.0, 0.22 μm filtered, peptide 0.5 mg/mL, 37°C, 24 h, RP-HPLC) is reported as 36.92 ± 3.97 %. Further, in the series on RAW 264.7 cells, 26.2 ± 1.8 µM corresponded to half-maximal inhibition (IC50). In addition, in the series on BALB/c mice (single i.v. dose, all tested doses (5, 10, 20 mg/kg), three mice per dose), the “signs of toxicity after intravenous injection” value was “Mild depression and purple-black tails”.
